Results published in ChEMBL document CHEMBL4765365, “Design, synthesis and antitumour evaluation of pyrrolo[1,2-f]-phenanthridine and dibenzo[f,h]pyrrolo[1,2-b]isoquinoline derivatives” (Eur J Med Chem, 2020).

Assays:
NCI-H460 [1] = test: Induction of cell cycle arrest in human NCI-H460 cells assessed as G0 phase at 1.5 uM incubated for 24 hrs by PI staining based flow cytometry analysis (reference value: 1.6 +/- 0.6 %); assay type: functional
HCT-116 [2] = test: Induction of cell cycle arrest in human HCT-116 cells assessed as G1 phase at 0.75 uM incubated for 36 hrs by PI staining based flow cytometry analysis (reference value: 57.4 +/- 1.3 %); assay type: functional
HCT-116 [3] = test: Induction of cell cycle arrest in human HCT-116 cells assessed as S phase at 1.5 uM incubated for 36 hrs by PI staining based flow cytometry analysis (reference value: 7.9 +/- 3.7 %); assay type: functional
NCI-H460 [4] = test: Induction of cell cycle arrest in human NCI-H460 cells assessed as G2/M phase at 1.5 uM incubated for 12 hrs by PI staining based flow cytometry analysis (reference value: 22.9 +/- 6.8 %); assay type: functional
NCI-H460 [5] = test: Cytotoxicity against human NCI-H460 cells assessed as reduction in cell viability incubated for 72 hrs by XTT assay; assay type: functional, cell-based; conditions: NCI-H460, 72 h
NCI-H460 [6] = test: Induction of cell cycle arrest in human NCI-H460 cells assessed as G1 phase at 3 uM incubated for 36 hrs by PI staining based flow cytometry analysis (reference value: 57.9 +/- 3.6 %); assay type: functional
HCT-116 [7] = test: Induction of cell cycle arrest in human HCT-116 cells assessed as G1 phase at 0.75 uM incubated for 24 hrs by PI staining based flow cytometry analysis (reference value: 55 +/- 9.8 %); assay type: functional
HCT-116 [8] = test: Induction of cell cycle arrest in human HCT-116 cells assessed as S phase at 0.375 uM incubated for 24 hrs by PI staining based flow cytometry analysis (reference value: 21.2 +/- 5.4 %); assay type: functional
NCI-H460 [9] = test: Induction of cell cycle arrest in human NCI-H460 cells assessed as G1 phase at 3 uM incubated for 12 hrs by PI staining based flow cytometry analysis (reference value: 66 +/- 10 %); assay type: functional
NCI-H460 [10] = test: Induction of cell cycle arrest in human NCI-H460 cells assessed as G1 phase at 1.5 uM incubated for 36 hrs by PI staining based flow cytometry analysis (reference value: 57.9 +/- 3.6 %); assay type: functional
HCT-116 [11] = test: Induction of cell cycle arrest in human HCT-116 cells assessed as G0 phase at 0.75 uM incubated for 12 hrs by PI staining based flow cytometry analysis (reference value: 2.2 +/- 1.7 %); assay type: functional
NCI-H460 [12] = test: Induction of cell cycle arrest in human NCI-H460 cells assessed as G0 phase at 3 uM measured at 0 hrs by PI staining based flow cytometry analysis (reference value: 1.3 +/- 0.9 %); assay type: functional
HCT-116 [13] = test: Induction of cell cycle arrest in human HCT-116 cells assessed as G0 phase at 0.375 uM incubated for 12 hrs by PI staining based flow cytometry analysis (reference value: 2.2 +/- 1.7 %); assay type: functional
HCT-116 [14] = test: Induction of cell cycle arrest in human HCT-116 cells assessed as G0 phase at 0.75 uM incubated for 36 hrs by PI staining based flow cytometry analysis (reference value: 2.5 +/- 0.8 %); assay type: functional
NCI-H460 [15] = test: Induction of apoptosis in human NCI-H460 cells assessed as late apoptotic cells at 6 uM incubated for 48 hrs by annexin V-FITC and PI staining based flow cytometry analysis (reference value: 7.3 %); assay type: functional
HCT-116 [16] = test: Induction of cell cycle arrest in human HCT-116 cells assessed as G2/M phase at 0.75 uM incubated for 12 hrs by PI staining based flow cytometry analysis (reference value: 21.7 +/- 1.9 %); assay type: functional
HCT-116 [17] = test: Induction of cell cycle arrest in human HCT-116 cells assessed as G2/M phase at 0.75 uM incubated for 36 hrs by PI staining based flow cytometry analysis (reference value: 23.6 +/- 1 %); assay type: functional
HCT-116 [18] = test: Induction of cell cycle arrest in human HCT-116 cells assessed as G2/M phase at 0.375 uM measured at 0 hrs by PI staining based flow cytometry analysis (reference value: 28.9 +/- 1.4 %); assay type: functional
HCT-116 [19] = test: Induction of cell cycle arrest in human HCT-116 cells assessed as G0 phase at 1.5 uM incubated for 24 hrs by PI staining based flow cytometry analysis (reference value: 12.5 +/- 5.4 %); assay type: functional
HCT-116 [20] = test: Induction of cell cycle arrest in human HCT-116 cells assessed as S phase at 0.75 uM incubated for 12 hrs by PI staining based flow cytometry analysis (reference value: 15.5 +/- 0.2 %); assay type: functional
HCT-116 [21] = test: Induction of cell cycle arrest in human HCT-116 cells assessed as G0 phase at 0.375 uM incubated for 36 hrs by PI staining based flow cytometry analysis (reference value: 2.5 +/- 0.8 %); assay type: functional
HCT-116 [22] = test: Induction of cell cycle arrest in human HCT-116 cells assessed as G1 phase at 0.375 uM measured at 0 hrs by PI staining based flow cytometry analysis (reference value: 52 +/- 5.1 %); assay type: functional
HCT-116 [23] = test: Induction of cell cycle arrest in human HCT-116 cells assessed as S phase at 0.75 uM measured at 0 hrs by PI staining based flow cytometry analysis (reference value: 12.4 +/- 6.2 %); assay type: functional
HCT-116 [24] = test: Induction of cell cycle arrest in human HCT-116 cells assessed as G1 phase at 1.5 uM incubated for 36 hrs by PI staining based flow cytometry analysis (reference value: 57.4 +/- 1.3 %); assay type: functional
NCI-H460 [25] = test: Induction of cell cycle arrest in human NCI-H460 cells assessed as G1 phase at 3 uM incubated for 24 hrs by PI staining based flow cytometry analysis (reference value: 56.8 +/- 7.6 %); assay type: functional
NCI-H460 [26] = test: Induction of cell cycle arrest in human NCI-H460 cells assessed as G2/M phase at 0.75 uM incubated for 24 hrs by PI staining based flow cytometry analysis (reference value: 21 +/- 6.7 %); assay type: functional
HCT-116 [27] = test: Induction of cell cycle arrest in human HCT-116 cells assessed as G1 phase at 0.75 uM measured at 0 hrs by PI staining based flow cytometry analysis (reference value: 52 +/- 5.1 %); assay type: functional
HCT-116 [28] = test: Induction of cell cycle arrest in human HCT-116 cells assessed as G2/M phase at 0.375 uM incubated for 24 hrs by PI staining based flow cytometry analysis (reference value: 9.3 +/- 0.8 %); assay type: functional
NCI-H460 [29] = test: Induction of cell cycle arrest in human NCI-H460 cells assessed as G0 phase at 3 uM incubated for 24 hrs by PI staining based flow cytometry analysis (reference value: 1.6 +/- 0.6 %); assay type: functional
HCT-116 [30] = test: Cytotoxicity against human HCT-116 cells assessed as reduction in cell viability incubated for 72 hrs by XTT assay; assay type: functional, cell-based; conditions: HCT-116, 72 h
NCI-H460 [31] = test: Induction of cell cycle arrest in human NCI-H460 cells assessed as G2/M phase at 0.75 uM incubated for 12 hrs by PI staining based flow cytometry analysis (reference value: 22.9 +/- 6.8 %); assay type: functional
HCT-116 [32] = test: Induction of cell cycle arrest in human HCT-116 cells assessed as G0 phase at 1.5 uM incubated for 36 hrs by PI staining based flow cytometry analysis (reference value: 2.5 +/- 0.8 %); assay type: functional

`OCc1cn2c3ccccc3c3ccccc3c2c1CO` gave an Activity (NCI-H460 [1]) of 2.8%, an Activity (HCT-116 [2]) of 65.1% and an Activity (HCT-116 [3]) of 6.1%. It also gave an Activity (NCI-H460 [4]) of 25.1%, an IC50 (NCI-H460 [5]) of 3.14 µM and an Activity (NCI-H460 [6]) of 51.8%. It also gave an Activity (HCT-116 [7]) of 57.4%, an Activity (HCT-116 [8]) of 17.2% and an Activity (NCI-H460 [9]) of 53.3%. For the same molecule, the Activity (NCI-H460 [10]) was 73.1%, the Activity (HCT-116 [11]) was 1.7% and the Activity (NCI-H460 [12]) was 1.3%. The Activity (HCT-116 [13]) was 1.8%, the Activity (HCT-116 [14]) was 6.9% and the Activity (NCI-H460 [15]) was 55.8%. The Activity (HCT-116 [16]) was 23.2%, the Activity (HCT-116 [17]) was 17.4% and the Activity (HCT-116 [18]) was 28.8%. It also gave an Activity (HCT-116 [19]) of 6.4%, an Activity (HCT-116 [20]) of 16.9% and an Activity (HCT-116 [21]) of 2.8%. It also gave an Activity (HCT-116 [22]) of 52.9%, an Activity (HCT-116 [23]) of 12.6% and an Activity (HCT-116 [24]) of 52.3%. For the same molecule, the Activity (NCI-H460 [25]) was 49.3%, the Activity (NCI-H460 [26]) was 24.1% and the Activity (HCT-116 [27]) was 52%. For the same molecule, the Activity (HCT-116 [28]) was 17.8%, the Activity (NCI-H460 [29]) was 5.2% and the IC50 (HCT-116 [30]) was 1.12 µM. It also gave an Activity (NCI-H460 [31]) of 23.7% and an Activity (HCT-116 [32]) of 18.2%.
